The values that follow come from patent publication US20250197374A1, “WEE1 DEGRADING COMPOUNDS AND USES THEREOF” (BRISTOL-MYERS SQUIBB COMPANY, priority 2023, published 2025).

Molecules are shown by their SMILES. pEC50: −log10 of the molar value. Where two headings read alike, the source gives them in different places.

Holding throughout (assay type): cell-based
Experiment [1] has as its system MDA-MB-231 cells. As to the kind of experiment: MDA-MB-231 cell proliferation assay (Cell-Titer-Glo, 120 hr). The conditions noted are these: for pEC50: read-out: MDA-MB 231 Cell Prolif. 120 hr EC50; for MDA-MB 231 Cell Prolif. 120 hr YMin (%): minimal percent of DMSO control observed. In short, it runs like this:
(§1)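 MKN45 (400/well) and MDA-MB-231 (800/well) cells in RPMI with 10% FBS were exposed to 10-point half-log doses from 1 or 10 uM (0.1% DMSO) for 120 h at 37 °C. Viability was read by CellTiter-Glo luminescence. EC50 came from blank-subtracted, %DMSO four-parameter fits, with Ymin-obs as the lowest %DMSO observed.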

For experiment [2], the target named is T1, WEE1 (Homo sapiens, UniProt P30291+Q96SW2).
T1 construct: C-terminal ePL-tagged (DiscoverX, Fremont, CA) full-length WEE1 expression construct; expressed in transfected cells; host or cells: LentiX-HEK293T (Invitrogen), lentivirally transduced; the cells also over-express GSPT1-GN
T1 sequence (P30291 whole entry): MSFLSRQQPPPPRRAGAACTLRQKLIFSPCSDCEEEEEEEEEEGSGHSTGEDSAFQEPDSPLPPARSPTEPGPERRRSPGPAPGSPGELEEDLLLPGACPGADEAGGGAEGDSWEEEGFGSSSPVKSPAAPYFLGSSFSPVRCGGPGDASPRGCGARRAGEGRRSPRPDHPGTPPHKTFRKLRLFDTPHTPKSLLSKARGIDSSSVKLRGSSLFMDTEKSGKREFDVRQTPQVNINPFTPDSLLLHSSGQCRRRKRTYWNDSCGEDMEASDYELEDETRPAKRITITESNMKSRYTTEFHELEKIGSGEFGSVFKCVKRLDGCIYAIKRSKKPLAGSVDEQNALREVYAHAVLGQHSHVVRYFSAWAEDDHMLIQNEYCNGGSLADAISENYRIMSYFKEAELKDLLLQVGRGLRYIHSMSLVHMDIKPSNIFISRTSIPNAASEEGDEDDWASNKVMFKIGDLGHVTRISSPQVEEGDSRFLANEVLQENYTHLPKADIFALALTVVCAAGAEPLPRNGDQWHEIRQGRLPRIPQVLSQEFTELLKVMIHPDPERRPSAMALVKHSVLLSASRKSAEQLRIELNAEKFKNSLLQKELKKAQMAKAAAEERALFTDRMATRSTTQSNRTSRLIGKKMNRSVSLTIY
T1 sequence (Q96SW2 whole entry): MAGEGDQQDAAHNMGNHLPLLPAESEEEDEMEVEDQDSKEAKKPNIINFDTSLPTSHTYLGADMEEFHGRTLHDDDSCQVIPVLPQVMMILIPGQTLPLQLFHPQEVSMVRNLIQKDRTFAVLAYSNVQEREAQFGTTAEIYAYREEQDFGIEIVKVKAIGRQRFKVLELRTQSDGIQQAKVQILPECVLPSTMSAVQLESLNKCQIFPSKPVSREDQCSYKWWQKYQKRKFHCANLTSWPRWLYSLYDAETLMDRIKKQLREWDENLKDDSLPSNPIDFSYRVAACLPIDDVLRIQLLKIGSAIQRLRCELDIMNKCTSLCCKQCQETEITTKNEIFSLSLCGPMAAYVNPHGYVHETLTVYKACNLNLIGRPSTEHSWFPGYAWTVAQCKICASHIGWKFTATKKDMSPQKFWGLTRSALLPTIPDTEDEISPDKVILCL
T1 sequence (Q16531 whole entry partner): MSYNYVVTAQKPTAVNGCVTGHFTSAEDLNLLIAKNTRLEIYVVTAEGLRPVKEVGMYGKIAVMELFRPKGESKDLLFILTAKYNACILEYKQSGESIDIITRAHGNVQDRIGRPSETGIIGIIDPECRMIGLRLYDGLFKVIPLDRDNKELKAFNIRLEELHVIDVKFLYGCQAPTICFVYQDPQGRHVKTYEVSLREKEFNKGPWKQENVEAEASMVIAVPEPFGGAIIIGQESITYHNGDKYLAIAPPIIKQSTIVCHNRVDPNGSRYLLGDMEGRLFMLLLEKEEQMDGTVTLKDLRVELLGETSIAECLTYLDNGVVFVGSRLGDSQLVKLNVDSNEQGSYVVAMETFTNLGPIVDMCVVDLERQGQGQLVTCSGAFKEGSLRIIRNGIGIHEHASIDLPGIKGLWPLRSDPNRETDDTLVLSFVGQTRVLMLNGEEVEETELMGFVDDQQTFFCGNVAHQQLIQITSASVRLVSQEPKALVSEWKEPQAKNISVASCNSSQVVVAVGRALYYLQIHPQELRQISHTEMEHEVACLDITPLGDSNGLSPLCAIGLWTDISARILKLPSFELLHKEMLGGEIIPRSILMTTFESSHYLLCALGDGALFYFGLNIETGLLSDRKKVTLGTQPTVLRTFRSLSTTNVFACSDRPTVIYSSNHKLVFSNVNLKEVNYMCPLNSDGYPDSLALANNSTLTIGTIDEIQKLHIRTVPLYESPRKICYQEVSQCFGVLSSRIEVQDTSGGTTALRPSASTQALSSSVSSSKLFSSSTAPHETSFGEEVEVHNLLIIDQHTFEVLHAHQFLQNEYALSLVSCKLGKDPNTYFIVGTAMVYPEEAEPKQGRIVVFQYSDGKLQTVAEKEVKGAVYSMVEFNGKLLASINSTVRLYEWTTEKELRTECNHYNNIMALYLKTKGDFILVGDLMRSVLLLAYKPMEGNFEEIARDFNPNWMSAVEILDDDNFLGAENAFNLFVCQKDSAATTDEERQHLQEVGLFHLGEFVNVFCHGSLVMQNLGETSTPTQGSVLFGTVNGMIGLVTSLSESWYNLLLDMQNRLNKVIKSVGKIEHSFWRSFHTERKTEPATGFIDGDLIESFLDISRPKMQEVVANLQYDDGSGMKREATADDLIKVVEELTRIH
As to the kind of experiment: WEE1-ePL degradation assay (293T-LentiX, InCELL Hunter luminescence, 4 hr). Particulars: for DC50: LentiX-HEK293T cells expressing WEE1-ePL, 4 hr incubation, read-out: 293T-LentiX WEE1-ePL Degradation 4 hr EC50; for 293T-LentiX WEE1-ePL Degradation 4 hr YMin (%): lower limit of fit, % of DMSO control signal remaining. An outline of the steps:
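LentiX-HEK293T cells expressing C-terminally ePL-tagged full-length WEE1 plus non-degradable GSPT1-GN (G575N, N-terminal 158 aa truncated). Treated 4 h at 37 °C with a 10-point, 3-fold series from 1 or 10 µM, then read by InCELL Hunter luminescence. EC50 from four-parameter logistic fit, Ymax set by DMSO control.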

The subject of experiment [3] is MKN45 cells. The experiment can be described thus: MKN45 cell proliferation assay (Cell-Titer-Glo, 120 hr). Particulars: for pEC50: read-out: MKN45 Cell Prolif. 120 hr EC50; for MKN45 Cell Prolif. 120 hr YMin (%): minimal percent of DMSO control observed. An outline of the steps:
as §1

[4] abbreviates: Homo sapiens, MDA-MB-231, 120 h.

As a reminder, the pEC50 is the negative decadic logarithm of the EC50, by convention in mol/L. As for `O=C1CC[C@H](N2Cc3cc(O[C@H]4CCN(Cc5cc(F)c6nc(N7C[C@@H]8CCO[C@@H]8C7)ncc6c5)C4)ccc3C2=O)C(=O)N1` (single isomer, unassigned) [Example 19, (S)-3-(5-(((S)-1-((8-fluoro-2-((3aS*,6aS*)-hexahydro-5H-furo[2,3-c]pyrrol-5-yl)quinazolin-6-yl)methyl)pyrrolidin-3-yl)oxy)-1-oxoisoindolin-2-yl)piperidine-2,6-dione], the pEC50 in experiment [1] (setting [4]) is 6.98; in experiment [3] (Homo sapiens, MKN-45, 120 h), 7.92. For the same compound, in experiment [1], the “MDA-MB 231 Cell Prolif. 120 hr YMin (%)” value is reported as 58.4%. In addition, the DC50 in experiment [2] was found to be 6 nM. In addition, in experiment [2], the “293T-LentiX WEE1-ePL Degradation 4 hr YMin (%)” value was determined as 31.4%. In addition, in experiment [3], the “MKN45 Cell Prolif. 120 hr YMin (%)” value stood at 10.1%.
In the case of `O=C1CCC(N2C(=O)c3ccc(O[C@H]4CCN(Cc5cc(F)c6nc(C7CCOCC7)ccc6c5)C4)cc3C2=O)C(=O)N1` (single isomer, unassigned) [Example 26, 2-((R*)-2,6-dioxopiperidin-3-yl)-5-(((S)-1-((8-fluoro-2-(tetrahydro-2H-pyran-4-yl)quinolin-6-yl)methyl)pyrrolidin-3-yl)oxy)isoindoline-1,3-dione], in experiment [1], the “MDA-MB 231 Cell Prolif. 120 hr YMin (%)” value turned out to be 53.8% and the pEC50 is 6.00. Further, in experiment [2], the DC50 worked out at 8 nM and the “293T-LentiX WEE1-ePL Degradation 4 hr YMin (%)” value is 32.8%. Further, in experiment [3], the “MKN45 Cell Prolif. 120 hr YMin (%)” value was found to be 12.3% and the pEC50 was 7.41.
For `O=C1CC[C@H](N2Cc3cc(O[C@H]4CCN(Cc5cc(F)c6nc(N7C[C@@H]8CCO[C@@H]8C7)ccc6c5)C4)ccc3C2=O)C(=O)N1` (single isomer, unassigned) [Example 81, (S)-3-(5-(((S)-1-((8-fluoro-2-((3aS*,6aS*)-hexahydro-5H-furo[2,3-c]pyrrol-5-yl)quinolin-6-yl)methyl)pyrrolidin-3-yl)oxy)-1-oxoisoindolin-2-yl)piperidine-2,6-dione], in experiment [1] (setting [4]), the pEC50 was 7.19. Besides, the “MDA-MB 231 Cell Prolif. 120 hr YMin (%)” value in experiment [1] worked out at 66.9%. Moreover, in experiment [2], the DC50 is 1 nM and the “293T-LentiX WEE1-ePL Degradation 4 hr YMin (%)” value was found to be 32.9%. For the same compound, in experiment [3] (Homo sapiens, MKN-45, 120 h), the pEC50 was 8.30. Moreover, the “MKN45 Cell Prolif. 120 hr YMin (%)” value in experiment [3] is recorded as 15.5%.
For the compound `COC[C@@H]1CN(Cc2cc(F)c3nc(N4CCC(OC)C4)ccc3c2)C[C@H]1Oc1ccc2c(c1)CN([C@H]1CCC(=O)NC1=O)C2=O` (single isomer, unassigned) [Example 97, (S)-3-(5-(((3S,4S)-1-((8-fluoro-2-((R*)-3-methoxypyrrolidin-1-yl)quinolin-6-yl)methyl)-4-(methoxymethyl)pyrrolidin-3-yl)oxy)-1-oxoisoindolin-2-yl)piperidine-2,6-dione], the pEC50 in experiment [1] (setting [4]) is 7.66. The “MDA-MB 231 Cell Prolif. 120 hr YMin (%)” value in experiment [1] is recorded as 22.0%. Moreover, in experiment [2], the DC50 stood at 1 nM and the “293T-LentiX WEE1-ePL Degradation 4 hr YMin (%)” value turned out to be 29.8%. Also, the pEC50 in experiment [3] (Homo sapiens, MKN-45, 120 h) was 9.00. The “MKN45 Cell Prolif. 120 hr YMin (%)” value in experiment [3] is reported as 8.7%.
In the case of `COC[C@@H]1CN(Cc2cc(F)c3nc(N4CCC(OC)C4)ccc3c2)C[C@H]1Oc1ccc2c(c1)CN([C@H]1CCC(=O)NC1=O)C2=O` (single isomer, unassigned) [Example 98, (S)-3-(5-(((3S,4S)-1-((8-fluoro-2-((S*)-3-methoxypyrrolidin-1-yl)quinolin-6-yl)methyl)-4-(methoxymethyl)pyrrolidin-3-yl)oxy)-1-oxoisoindolin-2-yl)piperidine-2,6-dione], in experiment [1], the “MDA-MB 231 Cell Prolif. 120 hr YMin (%)” value is listed as 25.1% and the negative-log EC50 (pEC50) was 7.89. In experiment [2], the DC50 worked out at 1 nM and the “293T-LentiX WEE1-ePL Degradation 4 hr YMin (%)” value turned out to be 29.4%. Also, in experiment [3], the “MKN45 Cell Prolif. 120 hr YMin (%)” value came out at 9.0% and the pEC50 was 9.00.
For the compound `COC[C@@H]1CN(Cc2cc(F)c3c(ccn3C(=O)C3CCOCC3)c2)C[C@H]1Oc1ccc2c(c1)CN([C@H]1CCC(=O)NC1=O)C2=O` [Example 24, (3S)-3-(5-{[(3S,4S)-1-{[7-fluoro-1-(oxane-4-carbonyl)-1H-indol-5-yl]methyl}-4-(methoxymethyl)pyrrolidin-3-yl]oxy}-1-oxo-2,3-dihydro-1H-isoindol-2-yl)piperidine-2,6-dione], the pEC50 in experiment [1] (setting [4]) was 7.17. For the same compound, in experiment [1], the “MDA-MB 231 Cell Prolif. 120 hr YMin (%)” value was 87.7%. Besides, in experiment [2], the DC50 is 5 nM and the “293T-LentiX WEE1-ePL Degradation 4 hr YMin (%)” value turned out to be 37.7%. The pEC50 in experiment [3] (Homo sapiens, MKN-45, 120 h) was 7.30. In addition, the “MKN45 Cell Prolif. 120 hr YMin (%)” value in experiment [3] turned out to be 49.1%.
For `COC[C@@H]1CN(Cc2ccc3c(ccn3C(=O)C3CCOCC3)c2)C[C@H]1Oc1ccc2c(c1)CN([C@H]1CCC(=O)NC1=O)C2=O` [Example 25, (3S)-3-(5-{[(3S,4S)-4-(methoxymethyl)-1-{[1-(oxane-4-carbonyl)-1H-indol-5-yl]methyl}pyrrolidin-3-yl]oxy}-1-oxo-2,3-dihydro-1H-isoindol-2-yl)piperidine-2,6-dione], in experiment [1] (setting [4]), the pEC50 was 6.89. Further, the “MDA-MB 231 Cell Prolif. 120 hr YMin (%)” value in experiment [1] turned out to be 80.7%. In experiment [2], the DC50 is 2 nM and the “293T-LentiX WEE1-ePL Degradation 4 hr YMin (%)” value is 39.0%. In addition, in experiment [3] (Homo sapiens, MKN-45, 120 h), the pEC50 is 7.46. The “MKN45 Cell Prolif. 120 hr YMin (%)” value in experiment [3] amounted to 25.4%.
`COC[C@@H]1CN(Cc2cc3ccc(N4CCOCC4)cc3cn2)C[C@H]1Oc1ccc2c(c1)CN([C@H]1CCC(=O)NC1=O)C2=O` [Example 28, (3S)-3-(5-{[(3S,4S)-4-(methoxymethyl)-1-{[7-(morpholin-4-yl)isoquinolin-3-yl]methyl}pyrrolidin-3-yl]oxy}-1-oxo-2,3-dihydro-1H-isoindol-2-yl)piperidine-2,6-dione]: in experiment [1] (setting [4]), the pEC50 is 7.32. The “MDA-MB 231 Cell Prolif. 120 hr YMin (%)” value in experiment [1] is reported as 22.1%. Also, in experiment [2], the DC50 is 1 nM and the “293T-LentiX WEE1-ePL Degradation 4 hr YMin (%)” value worked out at 29.1%. The pEC50 in experiment [3] (Homo sapiens, MKN-45, 120 h) is 9.00. Also, in experiment [3], the “MKN45 Cell Prolif. 120 hr YMin (%)” value amounted to 11.2%.
Turning to `COC[C@@H]1CN(Cc2ccc3ncc(N4CCOCC4)cc3c2)C[C@H]1Oc1ccc2c(c1)CN([C@H]1CCC(=O)NC1=O)C2=O` [Example 29, (3S)-3-(5-{[(3S,4S)-4-(methoxymethyl)-1-{[3-(morpholin-4-yl)quinolin-6-yl]methyl}pyrrolidin-3-yl]oxy}-1-oxo-2,3-dihydro-1H-isoindol-2-yl)piperidine-2,6-dione], the pEC50 in experiment [1] (setting [4]) was 7.60. Further, the “MDA-MB 231 Cell Prolif. 120 hr YMin (%)” value in experiment [1] is recorded as 17.8%. Moreover, in experiment [2], the DC50 amounted to 1 nM and the “293T-LentiX WEE1-ePL Degradation 4 hr YMin (%)” value was 26.4%. In experiment [3] (Homo sapiens, MKN-45, 120 h), the pEC50 was 8.70. For the same compound, the “MKN45 Cell Prolif. 120 hr YMin (%)” value in experiment [3] is reported as 8.8%.
With `COC[C@@H]1CN(Cc2cc(F)c3ncc(N4CCOCC4)cc3c2)C[C@H]1Oc1ccc2c(c1)CN([C@H]1CCC(=O)NC1=O)C2=O` [Example 30, (S)-3-(5-(((3S,4S)-1-((8-fluoro-3-morpholinoquinolin-6-yl)methyl)-4-(methoxymethyl)pyrrolidin-3-yl)oxy)-1-oxoisoindolin-2-yl)piperidine-2,6-dione], the pEC50 was 7.85 in experiment [1] (setting [4]) and 9.00 in experiment [3] (Homo sapiens, MKN-45, 120 h). Further, the “MDA-MB 231 Cell Prolif. 120 hr YMin (%)” value in experiment [1] stood at 12.7%. Besides, in experiment [2], the DC50 is 1 nM. For the same compound, the “293T-LentiX WEE1-ePL Degradation 4 hr YMin (%)” value in experiment [2] came out at 27.9%. For the same compound, the “MKN45 Cell Prolif. 120 hr YMin (%)” value in experiment [3] is 7.8%.
Consider `COC[C@@H]1CN(Cc2cc(F)c3nc(C(C)(C)O)ccc3c2)C[C@H]1Oc1ccc2c(c1)CN([C@H]1CCC(=O)NC1=O)C2=O` [Example 32, (3S)-3-(5-{[(3S,4S)-1-{[8-fluoro-2-(2-hydroxypropan-2-yl)quinolin-6-yl]methyl}-4-(methoxymethyl)pyrrolidin-3-yl]oxy}-1-oxo-2,3-dihydro-1H-isoindol-2-yl)piperidine-2,6-dione], for which, in experiment [1] (setting [4]), the pEC50 is 7.17. In addition, the “MDA-MB 231 Cell Prolif. 120 hr YMin (%)” value in experiment [1] is listed as 46.8%. Besides, in experiment [2], the DC50 was found to be 1 nM and the “293T-LentiX WEE1-ePL Degradation 4 hr YMin (%)” value is recorded as 33.4%. Besides, the pEC50 in experiment [3] (Homo sapiens, MKN-45, 120 h) was 8.70. The “MKN45 Cell Prolif. 120 hr YMin (%)” value in experiment [3] is 11.2%.
For the compound `COC[C@@H]1CN(Cc2cc(F)c3nc(COC4CCOCC4)ccc3c2)C[C@H]1Oc1ccc2c(c1)CN([C@H]1CCC(=O)NC1=O)C2=O` [Example 33, (3S)-3-(5-{[(3S,4S)-1-({8-fluoro-2-[(oxan-4-yloxy)methyl]quinolin-6-yl}methyl)-4-(methoxymethyl)pyrrolidin-3-yl]oxy}-1-oxo-2,3-dihydro-1H-isoindol-2-yl)piperidine-2,6-dione], in experiment [1] (setting [4]), the pEC50 is 7.55. Also, the “MDA-MB 231 Cell Prolif. 120 hr YMin (%)” value in experiment [1] is listed as 28.6%. Further, in experiment [2], the DC50 is 1 nM and the “293T-LentiX WEE1-ePL Degradation 4 hr YMin (%)” value is given as 29.3%. Further, in experiment [3] (Homo sapiens, MKN-45, 120 h), the pEC50 is 9.00. Also, in experiment [3], the “MKN45 Cell Prolif. 120 hr YMin (%)” value is 9.7%.
